Measurements: patent US20250099485A1, “COMPOSITIONS FOR PROMOTING HAIR GROWTH” (ESTETRA SRL, priority 2021, published 2025)

System: human dermal fibroblasts
Test: Wound healing gene expression RT-qPCR array, fibroblasts
Assay type: cell-based
Settings: 10^−7M, 15 h, relative to ethanol control
Source text: The healing properties of E4 were investigated at the transcriptional level by studying gene expression changes by RT-qPCR. 84 genes qPCR arrays focusing on the wound healing process were used. These arrays contain genes important for the three phases of wound healing process, including extra-cellular matrix (ECM) remodeling factors, inflammatory cytokines and chemokines as well as growth factors and major signaling molecules. The changes in gene expression were interpreted in a dermo cosmetic context in order to highlight the potential benefits of the E4 towards wound healing.
After 24 h seeded on 25 cm^2 culture flasks (T25), cells were treated with E4 during 15 h. The culture conditions were the same as the one used for the scratch test (see Example 2) and cells were treated with E4 in absence of FBS/HKGS. The cell density used for gene expression assay was lower than the ones used for the scratch tests: 15 800 cells/cm^2 for gene expression assay vs 113 636 cell/cm^2 for keratinocytes and 100 000 cells/cm^2 for fibroblasts in culture inserts for wound closure assay.
At the end of the 15 h treatment with E4 10^−7M or ethanol 0.1% used as control, total RNAs were extracted using the Qiagen RNeasy kit (Qiagen). Cells were rinsed with cold PBS and lysed in the ad hoc buffer provided in the kit. Extraction was performed according to the supplier's recommendations. The collected RNAs were stored at −80° C.
The RNA concentration was determined by spectrophotometric measurement (QIAxpert, Qiagen) and the RNA quality was analyzed by capillarity electrophoresis (Agilent Bioanalyzer 2100—Agilent RNA 6000 Nano Kit).
Reverse transcription was performed with kit “RT2 First Strand Kit” (Qiagen) from total RNA according to the manufacturer's instructions.
The qPCR method was used to quantify the expression changes of specific markers in the cDNA populations. The arrays “RT2 Profiler PCR Array human wound healing” containing specific primers for 84 target genes.
The amplification of target genes was performed following the supplier's recommendations thanks to a “HotStart Taq DNA Polymerase” and to the use of SYBR Green as detection method. The SYBR Green is a marker emitting fluorescence once inserted between the paired bases of nucleic acids. The fluorescence intensity is thus directly proportional to the quantity of produced amplicons.
The qPCRs were run using the Quantstudio7 Real-Time PCR System (Applied Biosystems) and its software (QuantStudio real time PCR Software v1.3. software, Applied Biosystems).
The data obtained for E4 treated conditions were compared to the ethanol control in both cell types. The threshold cycles (Ct) values were normalized to the mean of Ct of several housekeeping genes present on the array (indicated in the table below). The maximum Ct cut-off value was fixed at 36 cycles meaning that Ct values above 36 were not considered in the analysis.

Compound: C[C@]12CC[C@@H]3c4ccc(O)cc4CC[C@H]3[C@@H]1[C@@H](O)[C@@H](O)[C@@H]2O [E4, 1,3,5 (10)-estratrien-3,15alpha,16alpha,17beta-tetrol]
- COL1A2 (Collagen alpha-2(I) chain) expression, FC: 0.9445 Fold Change (FC)
- CTGF (CCN family member 2) expression, FC: 0.7643 Fold Change (FC)
- MAPK1 (Mitogen-activated protein kinase 1) expression, FC: 0.9284 Fold Change (FC)
- MMP7 (Matrix metalloproteinase-7; Matrilysin) expression, FC: 1.1451 Fold Change (FC)
- SERPINE1 (Plasminogen activator inhibitor 1) expression, FC: 0.8516 Fold Change (FC)
- VTN (Vitronectin) expression, FC: 0.7652 Fold Change (FC)
- WNT5A (Protein Wnt-5a) expression, FC: 0.8930 Fold Change (FC)
